According to the supplement of paper PMC5762512:

Assays:
Experiment in all cases: IC50 cell viability (Alamar Blue, 96 h)
PER-535 = system: PER-535
Experimental: (§1)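 Cells in log-phase growth were seeded in 96-well plates and treated with drug for 96 h at 37°C using 8-point serial dilutions from 0.0025 to 10 µM. Viability was read by Alamar Blue fluorescence after 6 h and normalised to positive and vehicle (DMSO) controls. IC50 values were fitted in ActivityBase; the value given is the mean of two independent experiments.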

PER-704 = system: PER-704
Experimental: as §1

PER-536 = system: PER-536
Experimental: as §1

PER-624 = system: PER-624
Experimental: as §1

WI-38 = system: WI-38
Experimental: as §1

11060 = system: 11060
Experimental: as §1

A549 = system: A549
Experimental: as §1

TC797 = system: TC797
Experimental: as §1

10326 = system: 10326
Experimental: as §1

TY82 = system: TY82
Experimental: as §1

HS-27 = system: HS-27
Experimental: as §1

PER-712 = system: PER-712
Experimental: as §1

RPMI2650 = system: RPMI2650
Experimental: as §1

PER-403 = system: PER-403
Experimental: as §1

CAKI-1 = system: CAKI-1
Experimental: as §1

HCC2429 = system: HCC2429
Experimental: as §1

14169 = system: 14169
Experimental: as §1

PER-891 = system: PER-891
Experimental: as §1

P896-CL = system: P896-CL
Experimental: as §1

8645 = system: 8645
Experimental: as §1

Row | Compound | IC50 cell viability (PER-535) [nM] | IC50 cell viability (PER-704) [nM] | IC50 cell viability (PER-536) [nM] | IC50 cell viability (PER-624) [nM] | IC50 cell viability (WI-38) [nM] | IC50 cell viability 11060 [nM] | IC50 cell viability (A549) [nM] | IC50 cell viability (TC797) [nM] | IC50 cell viability 10326 [nM] | IC50 cell viability (TY82) [nM] | IC50 cell viability (HS-27) [nM] | IC50 cell viability (PER-712) [nM] | IC50 cell viability (RPMI2650) [nM] | IC50 cell viability (PER-403) [nM] | IC50 cell viability (CAKI-1) [nM] | IC50 cell viability (HCC2429) [nM] | IC50 cell viability 14169 [nM] | IC50 cell viability (PER-891) [nM] | IC50 cell viability (P896-CL) [nM] | IC50 cell viability 8645 [nM]
1 | COc1cc2ncnc(Nc3ccc(F)c(Cl)c3)c2cc1OCCCN1CCOCC1 [Gefitinib] | > 10000 | > 10000 | > 10000 | 2210 | 5190 | 5370 | 2740 | > 10000 | 5890 | > 10000 | 7850 | > 10000 | > 10000 | > 10000 | > 10000 | > 10000 | 6050 | 6540 | 1450 | 
2 | CC[C@]1(O)C[C@H]2CN(CCc3c([nH]c4ccccc34)[C@@](C(=O)OC)(c3cc4c(cc3OC)N(C=O)[C@H]3[C@@](O)(C(=O)OC)[C@H](OC(C)=O)[C@]5(CC)C=CCN6CC[C@]43[C@@H]65)C2)C1 [Vincristine] | 6.92 | 6.18 | 20.7 | 7.58 | 8.35 | < 2.5 | 6.14 | 5.35 | < 2.5 | 8.25 | 7.19 | 8.68 | > 10000 | < 2.5 | 5020 | < 2.5 | < 2.5 | 27.5 | 8.77 | < 2.5
3 | COc1cccc2c1C(=O)c1c(O)c3c(c(O)c1C2=O)C[C@@](O)(C(C)=O)C[C@@H]3O[C@H]1C[C@H](N)[C@H](O)[C@H](C)O1 [Daunorubicin] | 218 | 110 | 339 | 22 | 87.8 | 29.5 | 13.1 | 153 | 42.1 | 227 | 90.1 | 384 | 285 | 14.9 | 1030 | 51.1 | 9.69 | 475 | 201 | 12.2
4 | C[C@H]1O[C@@H](O[C@H]2[C@@H](O)C[C@H](O[C@H]3[C@@H](O)C[C@H](O[C@H]4CC[C@@]5(C)[C@H](CC[C@@H]6[C@@H]5C[C@@H](O)[C@]5(C)[C@@H](C7=CC(=O)OC7)CC[C@]65O)C4)O[C@@H]3C)O[C@@H]2C)C[C@H](O)[C@@H]1O [Digoxin] | 218 | 200 | 598 | 99.7 | 34 | 86.2 | 16.5 | 226 | 41.5 | 83.7 | 58.9 | 299 | 97.6 | 57.7 | 323 | 96.9 | 52 | 103 | 158 | 82.5
5 | Cc1cc(/C=C/c2ccc3cc(N(C)C)ccc3[n+]2C)c(C)n1-c1ccccc1 [Pyrvinium pamoate] | 260 | 198 | 261 | 188 | 256 | 167 | 95 | 165 | 230 | 206 | 263 | 277 | 421 | 199 | 906 | 173 | 249 | 396 | 304 | 268
6 | Cc1csc(-c2nnc(Nc3ccc(Oc4ncccc4-c4ccnc(N)n4)cc3)c3ccccc23)c1 [AMG-900] | 112 | > 10000 | > 10000 | > 10000 | 7360 | 98.1 | 6.42 | > 10000 | 3.75 | > 10000 | > 10000 | > 10000 | > 10000 | < 2.5 | > 10000 | 7.26 | 3.94 | > 10000 | 5020 | > 10000
